Data set [1] has as its system C57BL/6 mice with DSS colitis. As to the kind of experiment: DSS colitis in C57BL/6 mice. On Clinical Score: key: −: indicates no statistically significant effect in the variable measured when compared with the control group; +: indicates a statistically significant difference in the variable measured when compared with the control group; ++: indicates measurements that include multiple variables in the calculation of their differences when compared with the control group, and represents the presence of significant changes across all variable measurements. It is filed as in vivo. Particulars: for Clinical Score: includes weight, bleeding, diarrhea, rectal prolapse; for protection against colitis induced weight loss / colitis-induced weight loss / colon length shortening: daily oral gavage; for protection against colitis induced weight loss: after d11; for colitis-induced weight loss / colon length shortening: d12. As to the method:
Dextran sodium sulfate (DSS) was added to the water 24 hrs after compound administration and weight was measured daily.
C57BL/6 mice (20-22 grams) were fed ad lib and assigned to 4 different groups (n=8/group). […] A control group received vehicle alone. After 24 hrs, mice were weighed and DSS was added to their drinking water. Mice were then treated with the test compounds and weighed daily and the DSS water was replenished every 72 hrs for 5 days, at which point, it was replaced by regular drinking water. Mice were sacrificed on day twelve and clinical scored was assessed. Intestinal tissue for and blood were also collected. Tissues were either flash frozen and kept in −80° C. for RNA and protein isolation or placed in 10% formalin solution for future histological analysis. Blood was spun at 5K rpm for 5 min and serum was collected and kept at −20° C. for multiplex cytokine analysis.
DSS colitis mouse model: C57BL/6 mice (20-22 grains) are fed ad lib and assigned to different groups (n=8/group). […] A control group receives vehicle alone. After 24 h, mice are weighed and DSS is added to their drinking water. Mice are then treated with the test compounds and weighed daily and the DSS water is replenished every 72 liars for 5 days, at which point, it is replaced by regular drinking water. Mice are sacrificed on day twelve and clinical scored was assessed. Intestinal tissue for and blood are also collected. Tissues are either flash frozen and kept in −80° C. for RNA and protein isolation or placed in 10% formalin solution for future histological analysis.

Data set [2] concerns HT-29 colorectal cancer cells. As to the kind of experiment: HT-29 cell viability (Real-Time-Glo). It is filed as cell-based. Particulars: for growth of HT-29 colorectal cancer cells: luminescence at 72 h; for IC50: Homo sapiens, HT-29, 72 hr, read-out: IC50, Cell line: HT-29. As for the experimental part: Equal volume of 2× RealTime-Glo™ reagent (2 μl of MT Cell Viability Substrate 1,000×, and 2 μl of NanoLuc® Enzyme 1,000×, per 1 ml of media, Promega) was added to each well and cells were incubated at 37° C. Luminescence was evaluated at 72 h.
To determine the plating density for cell viability assays, for each cell line, cells were counted and diluted to final densities of 2.5, 5, 10 and 20 thousand per 100 μl of their respective growth media per well in 96 well plates. A Promega Real-Time-Glo cell viability kit was used to determine the optimal concentration for cell plating so that each cell line would be within the linear part of its growth curve after 72 hrs in culture. […] Test compounds were then added at different concentrations for the creation of six-point curve and cell density was determined using the Promega Real-Time-Glo cell viability kit after 24, 48, and 72 hrs in culture.
Specifically, the Promega Real-Time-Glo cell viability kit was used to determine the optimal concentration for cell plating so that each cell line would be within the linear part of its growth curve after 72 hrs in culture. […] Test compounds are then added at different concentrations for the creation of six-point curve and cell density is determined using the Promega Real-Time-Glo cell viability kit after 24, 48, and 72 hrs in culture. […]

A short description of data set [3]: Formulation visual stability (DMA/PG/PEG 300/water). Format: physicochemical. Particulars: 25° C., 10-11 mg/mL in DMA/PG/PEG 300/Water. As for the experimental part:
All formulations were conducted with FDA approved excipients and with high purity material such as USP grade quality. Formulation stability of test articles are performed using HPLC purity method described within analytical section. This formula may be used for oral administration of the compounds described herein; […]. Since these compounds have high solubility in lower pH as described in the solubility study section, the intervenous delivery is performed with 100% phosphate buffer solution of pH 6.5 allowing up to 7 mg/mL concentration. The formulated test articles can be store at 4° C. Prior to dosing, it should be warmed and vortexed for about 1 min to make a homogenous solution. If needed, filter through 0.2 μM syringe filter to maintain clean and sterile.

Data set [4] has as its system 5637. Nature of the data set: 5637 bladder cancer cell viability (Real-Time-Glo). Format: cell-based. Particulars: 72 hr; read-out: IC50, Cell line: 5637. As for the experimental part: (§1) To determine the plating density for cell viability assays, for each cell line, cells were counted and diluted to final densities of 2.5, 5, 10 and 20 thousand per 100 μl of their respective growth media per well in 96 well plates. A Promega Real-Time-Glo cell viability kit was used to determine the optimal concentration for cell plating so that each cell line would be within the linear part of its growth curve after 72 hrs in culture. For the determination of test compound IC50s different cancer cell lines were plated in 96 well plates in the pre-determined optimal density for each cell line. Test compounds were then added at different concentrations for the creation of six-point curve and cell density was determined using the Promega Real-Time-Glo cell viability kit after 24, 48, and 72 hrs in culture. Test compound 72 hr IC50s were calculated using the AAT Bioquest IC50 calculator.
The following compounds are evaluated for their ability to block cancer cell growth in colon (HT-29), liver (HepG2), pancreatic (MiaPaca-2) and bladder (5637) cancer cell lines. Specifically, the Promega Real-Time-Glo cell viability kit was used to determine the optimal concentration for cell plating so that each cell line would be within the linear part of its growth curve after 72 hrs in culture. For the determination of test compound IC50s different cancer cell lines are plated in 96 well plates in the pre-determined optimal density for each cell line. Test compounds are then added at different concentrations for the creation of six-point curve and cell density is determined using the Promega Real-Time-Glo cell viability kit after 24, 48, and 72 hrs in culture. Test compound 72 hr IC50s is calculated using the AAT Bioquest IC50 calculator.

Data set [5] deals with A-498. Nature of the data set: A-498 kidney cancer cell viability (Real-Time-Glo). It is filed as cell-based. Particulars: Homo sapiens, A498; 72 hr; read-out: IC50, Cell line: A-498. As for the experimental part: as §1
Where [6] appears, read: 25 mg/kg PO daily, sacrificed day twelve.
Where [7] appears, read: 50 mg/kg daily oral, d12 after DSS induction, vs vehicle.

Molecules are shown by their SMILES.

A word on the IC50: it is the concentration that gives 50% inhibition.

Take `COc1cc2c(NC3CCS(=O)(=O)CC3)nc(N3CCC(F)(F)CC3)nc2cc1OCCCN1CCCC1` [Compound 1, 4-((2-(4,4-difluoropiperidin-1-yl)-6-methoxy-7-(3-(pyrrolidin-1-yl)propoxy)quinazolin-4-yl)amino)tetrahydro-2H-thiopyran 1,1-dioxide]: the “effect on the effects of DSS colitis (in words)” value (“effect on the effects” for short) in data set [1] (25 mg/kg PO daily) is reported as “alleviation of the effects of DSS colitis”. Also, the “Colon Length” value in data set [1] (25 mg/kg PO daily, day twelve) was “+”; in data set [1] (setting [7]), “increased”. In addition, in data set [1] (25 mg/kg PO daily, day twelve), the “Clinical Score” value is reported as “+”. Further, the “DSS Efficacy” value in data set [1] (setting [6]) is listed as “+”. In addition, the DSS-induced weight loss result in data set [1] (50 mg/kg daily oral) was “resulted in increased weight”. Besides, the “protection against colitis induced weight loss” value in data set [1] is “significant protection against colitis induced weight loss”. Further, in data set [1] (vs vehicle), the colitis-induced weight loss result is given as “significantly prevented”. Further, in data set [1] (vs vehicle), the colon length shortening result is recorded as “significantly prevented”. The “growth of HT-29 colorectal cancer cells” value in data set [2] is “potent anti-cancer activity”. Moreover, the Appearance result in data set [3] (30 min), in data set [3] (1 h), in data set [3] (5 h), in data set [3] (24 h) and in data set [3] (7 d) was “clear” throughout.

On to `COc1cc2c(NC3CCOCC3)nc(N3CCC(F)(F)CC3)nc2cc1OCCCN1CCCC1` [Compound 2, 2-(4,4-difluoropiperidin-1-yl)-6-methoxy-7-(3-(pyrrolidin-1-yl)propoxy)-N-(tetrahydro-2H-pyran-4-yl)quinazolin-4-amine], for which the “effect on overall efficacy, clinical score and colon length (in words)” value in data set [1] (25 mg/kg PO daily) is listed as “very strong effect”. The “effect on the effects” value in data set [1] (25 mg/kg PO daily) is recorded as “alleviation of the effects of DSS colitis”. Further, the “Colon Length” value in data set [1] (25 mg/kg PO daily, day twelve) is “++”. Moreover, the “Clinical Score” value in data set [1] (25 mg/kg PO daily, day twelve) was “++”. Further, the “DSS Efficacy” value in data set [1] (setting [6]) is “++”. In data set [1], the “protection against colitis induced weight loss” value is reported as “significant protection against colitis induced weight loss”. Also, the colitis-induced weight loss result in data set [1] (vs vehicle) is on record as “significantly prevented”. For the same compound, the colon length shortening entry in data set [1] (vs vehicle) is recorded as “significantly prevented”. Also, the IC50 in data set [2] lay within 1 to 5 µM; in data set [4], 10 to 20 µM. Further, the “growth of HT-29 colorectal cancer cells” value in data set [2] is “potent anti-cancer activity”. In addition, the Appearance result in data set [3] (30 min), in data set [3] (1 h), in data set [3] (5 h), in data set [3] (24 h) and in data set [3] (7 d) was “clear” throughout.

Consider `COCCN1CCC(Nc2nc(N3CCC(F)(F)CC3)nc3cc(OCCCN4CCCC4)c(OC)cc23)CC1` [Compound 3, 2-(4,4-difluoropiperidin-1-yl)-6-methoxy-N-(1-(2-methoxyethyl)piperidin-4-yl)-7-(3-(pyrrolidin-1-yl)propoxy)quinazolin-4-amine], for which, in data set [2], the “growth of HT-29 colorectal cancer cells” value is given as “potent anti-cancer activity”. Further, the IC50 in data set [4] and in data set [5] was 5 to 10 µM in each case.

`COCCNc1nc(N2CCC(F)(F)CC2)nc2cc(OCCCN3CCCC3)c(OC)cc12` [Compound 4, 2-(4,4-difluoropiperidin-1-yl)-6-methoxy-N-(2-methoxyethyl)-7-(3-(pyrrolidin-1-yl)propoxy)quinazolin-4-amine]: in data set [2], the IC50 lay in the range of 1 to 5 µM and the “growth of HT-29 colorectal cancer cells” value is reported as “potent anti-cancer activity”. Further, the IC50 in data set [4] fell in the range of 10 to 20 µM.

For `COc1cc2c(NCC3CCN(C)CC3)nc(N3CCC(F)(F)CC3)nc2cc1OCCCN1CCCC1` [Compound 5, 2-(4,4-difluoropiperidin-1-yl)-6-methoxy-N-((1-methylpiperidin-4-yl)methyl)-7-(3-(pyrrolidin-1-yl)propoxy)quinazolin-4-amine], the “effect on the effects” value in data set [1] (25 mg/kg PO daily) was “alleviation of the effects of DSS colitis”. Also, in data set [1] (25 mg/kg PO daily, day twelve), the “Colon Length” value is given as “+” and the “Clinical Score” value was “+”. Besides, in data set [1] (setting [6]), the “DSS Efficacy” value was “+”.

Consider `COc1cc2c(NC3CCOCC3)nc(N3CCCC3)nc2cc1OCCCN1CCCC1` [Compound 164, 6-methoxy-2-(pyrrolidin-1-yl)-7-(3-(pyrrolidin-1-yl)propoxy)-N-(tetrahydro-2H-pyran-4-yl)quinazolin-4-amine], for which the “DSS Efficacy” value in data set [1] (25 mg/kg PO daily, day twelve) is recorded as “++”. For the same compound, the IC50 in data set [4] lay in the range of 5 to 10 µM.

Take `COc1cc2c(NC3CCOCC3)nc(N3CCC3)nc2cc1OCCCN1CCCC1` [Compound 174, 2-(azetidin-1-yl)-6-methoxy-7-(3-(pyrrolidin-1-yl)propoxy)-N-(tetrahydro-2H-pyran-4-yl)quinazolin-4-amine]: the IC50 in data set [4] is 10 to 20 µM.

Turning to `COc1cc2c(NC3CCN(C(C)C)CC3)nc(N3CCC3)nc2cc1OCCCN1CCCC1` [Compound 234, 2-(azetidin-1-yl)-N-(1-isopropylpiperidin-4-yl)-6-methoxy-7-(3-(pyrrolidin-1-yl)propoxy)quinazolin-4-amine], the IC50 in data set [4] and in data set [5] was 5 to 10 µM each time.

Take `COc1cc2c(NC3CCN(C(C)C)CC3)nc(C#N)nc2cc1OCCCN1CCCC1` [Compound 235, 4-((1-isopropylpiperidin-4-yl)amino)-6-methoxy-7-(3-(pyrrolidin-1-yl)propoxy)quinazoline-2-carbonitrile]: the half-inhibitory concentration (IC50) in data set [4] and in data set [5] was 5 to 10 µM in each case.

For the compound `COc1cc2c(NC3CCN(C(C)C)CC3)nc(N3CCC(F)(F)CC3)nc2cc1OCCCN1CCCC1` [Compound 400, 2-(4,4-difluoropiperidin-1-yl)-N-(1-isopropylpiperidin-4-yl)-6-methoxy-7-(3-(pyrrolidin-1-yl)propoxy)quinazolin-4-amine, reference compound], in data set [1] (25 mg/kg PO daily), the “effect on the effects” value was “no effect”. Moreover, the “Colon Length” value in data set [1] (25 mg/kg PO daily, day twelve) is on record as “−”; in data set [1] (setting [7]), “not”. In data set [1] (25 mg/kg PO daily, day twelve), the “Clinical Score” value is given as “−”. Moreover, the “DSS Efficacy” value in data set [1] (setting [6]) is “−”. Further, in data set [1] (50 mg/kg daily oral), the DSS-induced weight loss result is “failed to increase DSS-induced weight loss”. The IC50 in data set [2] fell in the range of 5 to 10 µM; in data set [5], 10 to 20 µM. In addition, the Appearance entry in data set [3] (30 min), in data set [3] (1 h), in data set [3] (5 h), in data set [3] (24 h) and in data set [3] (7 d) was “clear” throughout.

The values are drawn from US11485728B2, “Small molecules for the treatment of autoimmune diseases and cancer” (Athos Therapeutics, Inc., priority 2020, dated 2022).
